What was measured:
[1] = (§1) The drug is tested on Z-012 corresponding to metagenome with ENA study accession number: PRJEB37062 and ENA sample accession number: ERS12561812 for biotransformation under anaerobic condition. The drug concentrations were measured over 9 timepoints collected between 0 and 24 hours of incubation by liquid-chromatography-coupled mass spectrometry (LC–MS); settings: 2 µM
[2] = human gut metagenome, 24 h, 2 µM
[3] = human gut metagenome, 24 h, 2 µM; remark: listed apart in the source
[4] = human gut metagenome, 24 h, 2 µM; remark: listed apart in the source
[5] = human gut metagenome, 24 h, 2 µM; remark: listed apart in the source
[6] = human gut metagenome, 24 h, 2 µM; remark: listed apart in the source
[7] = human gut metagenome, 24 h, 2 µM; remark: listed apart in the source
[8] = (§2) The drug is tested on Z-029 corresponding to rat gut metagenome with ENA study accession number: PRJEB37062 and ENA sample accession number: ERS12561828 for biotransformation under anaerobic condition. The drug concentrations were measured over 9 timepoints collected between 0 and 24 hours of incubation by liquid-chromatography-coupled mass spectrometry (LC–MS); settings: 2 µM
[9] = as §2, with “on WLS-090” for “on Z-029”, “to human” for “to rat”, “number: ERS12561753” for “number: ERS12561828”; settings: 2 µM
[10] = human gut metagenome, 24 h, 2 µM; remark: listed apart in the source
[11] = human gut metagenome, 24 h, 2 µM; remark: listed apart in the source
[12] = as §1, with “Z-005” for “Z-012”, “ERS12561805” for “ERS12561812”; settings: 2 µM
[13] = as §2, with “on Z-024” for “on Z-029”, “to pig” for “to rat”, “number: ERS12561823” for “number: ERS12561828”; settings: 2 µM
[14] = as §2, with “on Z-030” for “on Z-029”, “to mouse” for “to rat”, “number: ERS12561829” for “number: ERS12561828”; settings: 2 µM
[15] = human gut metagenome, 24 h, 2 µM; remark: listed apart in the source
[16] = as §2, with “Z-007” for “Z-029”, “ERS12561807” for “ERS12561828”; settings: 2 µM
[17] = as §2, with “on Z-001” for “on Z-029”, “to mouse” for “to rat”, “number: ERS12561801” for “number: ERS12561828”; settings: 2 µM
[18] = as §2, with “on WLS-077” for “on Z-029”, “to human” for “to rat”, “number: ERS12561750” for “number: ERS12561828”; settings: 2 µM
[19] = as §2, with “on WLS-082” for “on Z-029”, “to human” for “to rat”, “number: ERS12561751” for “number: ERS12561828”; settings: 2 µM
[20] = human gut metagenome, 24 h, 2 µM; remark: listed apart in the source
Also: call rule not given here.

Compound | Bacterial Biotransformation [1] | Bacterial Biotransformation [2] | Bacterial Biotransformation [3] | Bacterial Biotransformation [4] | Bacterial Biotransformation [5] | Bacterial Biotransformation [6] | Bacterial Biotransformation [7] | Bacterial Biotransformation [8] | Bacterial Biotransformation [9] | Bacterial Biotransformation [10] | Bacterial Biotransformation [11] | Bacterial Biotransformation [12] | Bacterial Biotransformation [13] | Bacterial Biotransformation [14] | Bacterial Biotransformation [15] | Bacterial Biotransformation [16] | Bacterial Biotransformation [17] | Bacterial Biotransformation [18] | Bacterial Biotransformation [19] | Bacterial Biotransformation [20]
CN1CCC(=C2c3ccccc3CCc3cccnc32)CC1.O=C(O)/C=C\C(=O)O.O=C(O)/C=C\C(=O)O [AZATADINE MALEATE] | Compound NOT metabolized | Compound metabolized | Compound NOT metabolized | Compound NOT metabolized | Compound NOT metabolized | Compound NOT metabolized | Compound NOT metabolized | Compound NOT metabolized | Compound NOT metabolized | Compound NOT metabolized | Compound NOT metabolized | Compound NOT metabolized | Compound NOT metabolized | Compound NOT metabolized | Compound NOT metabolized | Compound NOT metabolized | Compound NOT metabolized | Compound NOT metabolized | Compound NOT metabolized | Compound NOT metabolized
Cc1ccnc2c1NC(=O)c1cccnc1N2C1CC1 [NEVIRAPINE] | Compound NOT metabolized | Compound metabolized | Compound metabolized | Compound metabolized | Compound NOT metabolized | Compound NOT metabolized | Compound metabolized | Compound NOT metabolized | Compound metabolized | Compound metabolized | Compound NOT metabolized | Compound NOT metabolized | Compound NOT metabolized | Compound NOT metabolized | Compound NOT metabolized | Compound NOT metabolized | Compound NOT metabolized | Compound NOT metabolized | Compound NOT metabolized | Compound NOT metabolized
CC(C)N(CCC(C(N)=O)(c1ccccc1)c1ccccn1)C(C)C.O=P(O)(O)O (stereo not given) [DISOPYRAMIDE PHOSPHATE] | Compound NOT metabolized | Compound metabolized | Compound NOT metabolized | Compound NOT metabolized | Compound NOT metabolized | Compound NOT metabolized | Compound NOT metabolized | Compound NOT metabolized | Compound metabolized | Compound metabolized | Compound NOT metabolized | Compound NOT metabolized | Compound NOT metabolized | Compound NOT metabolized | Compound NOT metabolized | Compound NOT metabolized | Compound NOT metabolized | Compound NOT metabolized | Compound NOT metabolized | Compound NOT metabolized
CC(=O)CC(c1ccccc1)c1c(O)c2ccccc2oc1=O (stereo not given) [WARFARIN] | Compound metabolized | Compound metabolized | Compound metabolized | Compound metabolized | Compound metabolized | Compound metabolized | Compound metabolized | Compound NOT metabolized | Compound metabolized | Compound metabolized | Compound NOT metabolized | Compound NOT metabolized | Compound metabolized | Compound NOT metabolized | Compound metabolized | Compound NOT metabolized | Compound NOT metabolized | Compound metabolized | Compound metabolized | Compound metabolized
O=C(NCc1ccccc1)OCCO [BURAMATE] | Compound NOT metabolized | Compound NOT metabolized | Compound NOT metabolized | Compound NOT metabolized | Compound NOT metabolized | Compound NOT metabolized | Compound NOT metabolized | Compound NOT metabolized | Compound NOT metabolized | Compound NOT metabolized | Compound NOT metabolized | Compound NOT metabolized | Compound NOT metabolized | Compound NOT metabolized | Compound NOT metabolized | Compound NOT metabolized | Compound NOT metabolized | Compound NOT metabolized | Compound NOT metabolized | Compound NOT metabolized
CS(=O)(=O)O.OC(CCN1CCCCC1)(c1ccccc1)c1ccccc1 [PRIDINOL METHANESULFONATE] | Compound NOT metabolized | Compound metabolized | Compound NOT metabolized | Compound metabolized | Compound NOT metabolized | Compound NOT metabolized | Compound metabolized | Compound NOT metabolized | Compound metabolized | Compound metabolized | Compound NOT metabolized | Compound NOT metabolized | Compound NOT metabolized | Compound NOT metabolized | Compound NOT metabolized | Compound NOT metabolized | Compound NOT metabolized | Compound NOT metabolized | Compound NOT metabolized | Compound metabolized
O=P(O)(O)O.c1ccc(CN(CC2=NCCN2)c2ccccc2)cc1 [ANTAZOLINE PHOSPHATE] | Compound NOT metabolized | Compound metabolized | Compound NOT metabolized | Compound metabolized | Compound NOT metabolized | Compound metabolized | Compound NOT metabolized | Compound NOT metabolized | Compound metabolized | Compound metabolized | Compound NOT metabolized | Compound NOT metabolized | Compound metabolized | Compound NOT metabolized | Compound metabolized | Compound NOT metabolized | Compound NOT metabolized | Compound NOT metabolized | Compound NOT metabolized | Compound NOT metabolized

Reference: ChEMBL document CHEMBL5724914, “Linking interpersonal differences in gut microbiota composition and drug biotransformation activity” (2024)
